Experimental data taken from publication PMC9811519 (RSC Chemical Biology, 2022).
Where a SMILES comes first, the peptide text is derived from it. The star is where a group is joined. X1 = O=C(O)CN(CCN(CC(=O)O)CC(=O)O)CCN(CC(=O)O)CC(=O)NCCN1C(=O)CC(*)C1=O; Myristoyl = CCCCCCCCCCCCCC(=O)*

Columns and labels:
[1] = tested on: 5T33 murine myeloma cells; test: Efflux / retention of indium-111 by radiolabelled cells; assay type: cell-based; details: 5T33 cells washed after radiolabelling, γ-counter, SD of 3 biological replicates
Method: To measure efflux, cells were washed after radiolabelling and re-incubated in fresh growth medium for 2–20 h.
(§1) After cell labelling, cells were washed twice with PBS and 300 μL of fresh growth media was added. Uptake efficiency was quantified at this time-point by measuring pellet and supernatant in the γ-counter. At 2, 5 and 20 h after addition of fresh media, cells were washed twice and activity in both the supernatant (original supernatant and washes) and pellet was measured using a γ-counter. Efflux was quantified as the activity of the supernatant divided by the total activity (supernatant + pellet). Cell viability was assessed prior to radiolabelling and at each time point by trypan blue exclusion.[54]

[2] = tested on: 5T33 murine myeloma cells; test: Cell viability, trypan blue exclusion assay
Method: Cell viability was assessed using a trypan blue exclusion assay (Fig. 2(d) and (e)).
as §1

[3] = tested on: 5T33 murine myeloma cells; test: Comparative cell uptake (cell radiolabelling yield), 10^5 cells, 2 MBq; assay type: cell-based
Method: Cell pellets were obtained by centrifugation, washed and gamma-counted.
as §1

NSG male mice = test: SPECT/CT imaging and ex vivo biodistribution; assay type: in vivo, mouse
Method: A SPECT/CT scan was acquired for 2 h immediately after injection (Fig. 3(a)).
Animal imaging studies were ethically reviewed by an Animal Welfare & Ethical Review Board at King's College London and carried out in accordance with the Animals (Scientific Procedures) Act 1986 (ASPA) UK Home Office regulations governing animal experimentation. […] Animals were maintained under isoflurane inhalation anaesthesia (2– 2.5% Isoflurane in air) for 2 h post-injection. […] The whole body SPECT scan time was 30 min × 4, (conducted sequentially) with a frame time of 40 s (using a 4-head scanner with 4 × 9 [1.4 mm] pinhole collimators in helical scanning mode) followed by a helical CT (45 kVP X-ray source, 1000 ms exposure time in 180 projections over 7.5 min). After this, animals were allowed to recover. SPECT/CT scans were acquired again, 1 day PI, after which all animals were culled (by increasing the dose of anaesthesia followed by cervical dislocation to confirm death) and organs/tissues harvested, weighed and radioactivity counted using a gamma counter. SPECT/CT images were reconstructed in a 256 × 256 matrix using HiSPECT (ScivisGmbH), a reconstruction software package and visualised and quantified using VivoQuant v.3.0 software (InVicro LLC., Boston, USA).

[111In+3].[O-]c1cccc2cccnc12.[O-]c1cccc2cccnc12.[O-]c1cccc2cccnc12 [[^111In]In-(oxine)3]
Indium-111 remaining associated with cells ([1]; 2 h after re-incubation in fresh growth medium): 76.0 ± 5.1% | Indium-111 remaining associated with cells ([1]; 20 h after re-incubation in fresh growth medium): 46.0 ± 9.6% | Cells viable after radiolabelling ([2]; 5T33 cells, 20 h after radiolabelling, trypan blue exclusion, prior to radiolabelling 89 ± 4% (DTPA-CTP group) and 96 ± 0.3% (oxine group), 3 biological replicates): 74 ± 6% | Cell radiolabelling yield ([3]; 1 × 10^5 5T33 cells in 200 μL, 2 MBq, 37 °C, DTPA-CTP tracer 3 h in serum-containing media, oxine tracer 30 min in serum-free media, washed, γ-counted, SD of 3 biological replicates): 20.6 ± 6.1 %AR | Average radioactivity per cell ([3]; 1 × 10^5 5T33 cells, 2 MBq added radioactivity, corresponds to the cell radiolabelling yield): 4.1 ± 1.0 Bq per cell

CCCCCCCCCCCCCC(=O)NCCCC[C@H](NC(=O)CCCCCCCCCCCCC)C(=O)N[C@@H](CO)C(=O)N[C@@H](CO)C(=O)N[C@@H](CCCCN)C(=O)N[C@@H](CO)C(=O)N1CCC[C@H]1C(=O)N[C@@H](CO)C(=O)N[C@@H](CCCCN)C(=O)N[C@@H](CCCCN)C(=O)N[C@@H](CC(=O)O)C(=O)N[C@@H](CC(=O)O)C(=O)N[C@@H](CCCCN)C(=O)N[C@@H](CCCCN)C(=O)N1CCC[C@H]1C(=O)NCC(=O)N[C@@H](CC(=O)O)C(=O)N[C@@H](CSC1CC(=O)N(CCNC(=O)CN(CCN(CCN(CC(=O)O)CC(=O)O)CC(=O)O)CC(=O)O)C1=O)C(=O)O (some centres unmarked) [[^111In]In-DTPA-CTP, metal not drawn] (Myristoyl-K(Myristoyl)SSKSPSKKDDKKPGDC(X1)-OH)
Localisation of indium-111 activity by SPECT/CT (NSG male mice; NSG male mice, intravenous via tail vein, 0–2 h PI, one animal per group scanned): indium-111 activity in the blood pool and liver | Time to dissociation from cell membranes post-administration of cells (NSG male mice; [^111In]In-DTPA-CTP-labelled 5T33 cells, intravenous, NSG mice, inferred from SPECT): 1 to 2 h | Cells viable after radiolabelling ([2]; 20 h): 88 ± 2%
